ChEMBL document CHEMBL4680313 (Bioorg Med Chem, 2021)
Values joined by “and” are separate entries in the source; they are usually repeats but may differ in a detail not shown here. Equal entries are not always repeated.

Assays:
[1] = biological target: T1, 5-hydroxytryptamine receptor 7 (Homo sapiens, UniProt P34969)
Description: Displacement of [3H]-LSD from human 5HT7 receptor by liquid scintillation counting

[2] = biological target: T2, 5-hydroxytryptamine receptor 2C (Homo sapiens, UniProt P28335)
T2 sequence (P28335 whole entry): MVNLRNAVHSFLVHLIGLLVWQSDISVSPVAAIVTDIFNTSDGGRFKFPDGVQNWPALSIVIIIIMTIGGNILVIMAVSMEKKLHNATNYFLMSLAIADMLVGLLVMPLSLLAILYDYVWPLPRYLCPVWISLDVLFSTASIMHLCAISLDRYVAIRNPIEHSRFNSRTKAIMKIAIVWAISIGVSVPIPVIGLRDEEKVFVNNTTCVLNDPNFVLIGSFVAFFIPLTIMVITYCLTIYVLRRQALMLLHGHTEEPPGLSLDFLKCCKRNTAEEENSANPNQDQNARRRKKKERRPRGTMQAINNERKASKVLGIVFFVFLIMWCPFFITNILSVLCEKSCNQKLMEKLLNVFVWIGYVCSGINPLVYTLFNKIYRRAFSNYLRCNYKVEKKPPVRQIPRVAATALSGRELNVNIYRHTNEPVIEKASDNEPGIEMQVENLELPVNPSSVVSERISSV

[3] = biological target: Sodium-dependent serotonin transporter (Homo sapiens, UniProt P31645)
Description: Displacement of [3H]-citalopram from human SERT by liquid scintillation counting

[4] = biological target: T3, 5-hydroxytryptamine receptor 1A (Homo sapiens, UniProt P08908)
T3 sequence (P08908 whole entry): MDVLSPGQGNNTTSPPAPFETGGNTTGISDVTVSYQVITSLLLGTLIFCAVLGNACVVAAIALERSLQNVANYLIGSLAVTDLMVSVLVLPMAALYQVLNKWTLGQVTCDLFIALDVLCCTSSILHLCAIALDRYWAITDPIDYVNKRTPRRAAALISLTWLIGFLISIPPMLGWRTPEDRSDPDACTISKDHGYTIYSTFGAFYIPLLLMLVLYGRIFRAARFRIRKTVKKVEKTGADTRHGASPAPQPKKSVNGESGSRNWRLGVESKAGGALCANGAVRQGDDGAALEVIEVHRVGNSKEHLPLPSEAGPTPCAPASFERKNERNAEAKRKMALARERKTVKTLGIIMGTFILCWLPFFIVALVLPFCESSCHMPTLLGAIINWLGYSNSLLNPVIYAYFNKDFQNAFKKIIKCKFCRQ

[5] = biological target: T4, D(2) dopamine receptor (Homo sapiens, UniProt P14416)
[6] = biological target: T5, 5-hydroxytryptamine receptor 2A (Homo sapiens, UniProt P28223)
[7] = biological target: T6, D(4) dopamine receptor (Homo sapiens, UniProt P21917)
T6 sequence (P21917 whole entry): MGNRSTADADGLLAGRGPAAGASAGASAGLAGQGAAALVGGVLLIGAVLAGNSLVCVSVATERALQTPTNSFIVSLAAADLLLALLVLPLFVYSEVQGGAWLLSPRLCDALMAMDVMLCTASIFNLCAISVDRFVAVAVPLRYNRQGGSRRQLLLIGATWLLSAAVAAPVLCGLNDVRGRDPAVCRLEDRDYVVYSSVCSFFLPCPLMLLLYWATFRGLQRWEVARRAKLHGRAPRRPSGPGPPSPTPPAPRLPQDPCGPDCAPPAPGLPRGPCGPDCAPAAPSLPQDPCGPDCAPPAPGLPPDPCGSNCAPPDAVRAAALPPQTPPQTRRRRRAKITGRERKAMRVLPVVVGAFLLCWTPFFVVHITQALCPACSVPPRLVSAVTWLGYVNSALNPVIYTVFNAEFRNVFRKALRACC

[8] = biological target: T7, D(3) dopamine receptor (Homo sapiens, UniProt P35462)
[9] = biological target: T8, 5-hydroxytryptamine receptor 2C (Homo sapiens) (UniProt P28335); experiment: Displacement of [3H]-mesulergine from human 5HT2C receptor at 10 uM by liquid scintillation counting
T8 sequence (whole entry): T2 sequence (P28335 whole entry)

[10] = biological target: T4, D(2) dopamine receptor; experiment: Displacement of [3H]-N-methylspiperone from human dopamine D2 receptor at 10 uM by liquid scintillation counting
[11] = biological target: T7, D(3) dopamine receptor; experiment: Displacement of [3H]-N-methylspiperone from human dopamine D3 receptor at 10 uM by liquid scintillation counting
[12] = biological target: T1, 5-hydroxytryptamine receptor 7; experiment: Displacement of [3H]-LSD from human 5HT7 receptor at 10 uM by liquid scintillation counting
[13] = biological target: T9, 5-hydroxytryptamine receptor 1A (Homo sapiens) (UniProt P08908); experiment: Displacement of [3H]-8-OH-DPAT from human 5HT1A receptor at 10 uM by liquid scintillation counting
T9 sequence (whole entry): T3 sequence (P08908 whole entry)

[14] = biological target: T5, 5-hydroxytryptamine receptor 2A; experiment: Displacement of [3H]-mesulergine from human 5HT2A receptor at 10 uM by liquid scintillation counting

T4 sequence (P14416 whole entry): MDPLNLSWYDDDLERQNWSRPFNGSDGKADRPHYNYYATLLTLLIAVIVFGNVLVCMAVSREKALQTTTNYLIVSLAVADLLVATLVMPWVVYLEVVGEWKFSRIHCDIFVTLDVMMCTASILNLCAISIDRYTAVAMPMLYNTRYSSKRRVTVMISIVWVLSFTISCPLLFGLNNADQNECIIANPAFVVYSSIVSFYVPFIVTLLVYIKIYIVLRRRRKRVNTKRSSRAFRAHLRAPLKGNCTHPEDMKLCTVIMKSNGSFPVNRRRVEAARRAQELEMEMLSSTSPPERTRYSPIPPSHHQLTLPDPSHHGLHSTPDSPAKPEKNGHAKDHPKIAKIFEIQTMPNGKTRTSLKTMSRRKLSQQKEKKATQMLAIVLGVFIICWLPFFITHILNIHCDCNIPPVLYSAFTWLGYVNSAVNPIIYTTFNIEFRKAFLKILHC
Sequence of Sodium-dependent serotonin transporter (P31645 whole entry): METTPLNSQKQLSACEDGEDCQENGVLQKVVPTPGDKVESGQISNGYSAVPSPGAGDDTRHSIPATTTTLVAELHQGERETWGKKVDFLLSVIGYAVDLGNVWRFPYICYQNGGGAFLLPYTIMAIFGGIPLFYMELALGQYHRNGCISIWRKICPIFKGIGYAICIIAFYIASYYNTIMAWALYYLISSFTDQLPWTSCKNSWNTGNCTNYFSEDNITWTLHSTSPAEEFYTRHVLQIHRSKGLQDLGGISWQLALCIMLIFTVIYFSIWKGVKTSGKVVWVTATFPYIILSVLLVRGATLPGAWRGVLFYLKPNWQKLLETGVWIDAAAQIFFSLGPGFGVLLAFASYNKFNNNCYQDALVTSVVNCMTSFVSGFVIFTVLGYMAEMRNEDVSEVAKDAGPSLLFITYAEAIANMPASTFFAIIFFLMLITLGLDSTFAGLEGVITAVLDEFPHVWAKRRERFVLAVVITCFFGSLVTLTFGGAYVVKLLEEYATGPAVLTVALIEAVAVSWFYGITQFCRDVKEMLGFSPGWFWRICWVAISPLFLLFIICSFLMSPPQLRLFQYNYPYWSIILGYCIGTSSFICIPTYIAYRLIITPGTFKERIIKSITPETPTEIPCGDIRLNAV
T1 sequence (P34969 whole entry): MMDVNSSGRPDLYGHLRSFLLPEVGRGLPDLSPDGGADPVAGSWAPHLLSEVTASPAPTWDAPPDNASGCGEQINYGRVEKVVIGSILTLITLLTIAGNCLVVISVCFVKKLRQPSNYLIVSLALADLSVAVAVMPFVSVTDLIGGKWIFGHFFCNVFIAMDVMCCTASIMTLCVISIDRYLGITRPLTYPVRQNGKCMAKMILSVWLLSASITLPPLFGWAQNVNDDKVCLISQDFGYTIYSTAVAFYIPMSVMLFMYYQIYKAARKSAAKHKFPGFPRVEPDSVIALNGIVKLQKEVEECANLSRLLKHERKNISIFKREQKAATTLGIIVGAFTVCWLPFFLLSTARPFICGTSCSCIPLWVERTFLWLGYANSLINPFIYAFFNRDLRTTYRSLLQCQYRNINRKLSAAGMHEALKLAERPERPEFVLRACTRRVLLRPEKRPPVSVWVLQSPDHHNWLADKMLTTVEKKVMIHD
T7 sequence (P35462 whole entry): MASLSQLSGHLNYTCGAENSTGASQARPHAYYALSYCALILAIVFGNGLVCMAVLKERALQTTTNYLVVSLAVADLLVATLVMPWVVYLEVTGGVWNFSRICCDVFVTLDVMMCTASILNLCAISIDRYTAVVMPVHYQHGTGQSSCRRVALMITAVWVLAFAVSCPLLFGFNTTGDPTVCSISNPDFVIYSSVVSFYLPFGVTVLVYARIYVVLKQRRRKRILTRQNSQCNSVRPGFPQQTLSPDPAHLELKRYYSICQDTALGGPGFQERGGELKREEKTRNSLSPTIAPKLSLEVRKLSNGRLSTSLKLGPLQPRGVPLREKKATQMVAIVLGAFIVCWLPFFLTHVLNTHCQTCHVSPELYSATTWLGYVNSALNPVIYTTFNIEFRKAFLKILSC
T5 sequence (P28223 whole entry): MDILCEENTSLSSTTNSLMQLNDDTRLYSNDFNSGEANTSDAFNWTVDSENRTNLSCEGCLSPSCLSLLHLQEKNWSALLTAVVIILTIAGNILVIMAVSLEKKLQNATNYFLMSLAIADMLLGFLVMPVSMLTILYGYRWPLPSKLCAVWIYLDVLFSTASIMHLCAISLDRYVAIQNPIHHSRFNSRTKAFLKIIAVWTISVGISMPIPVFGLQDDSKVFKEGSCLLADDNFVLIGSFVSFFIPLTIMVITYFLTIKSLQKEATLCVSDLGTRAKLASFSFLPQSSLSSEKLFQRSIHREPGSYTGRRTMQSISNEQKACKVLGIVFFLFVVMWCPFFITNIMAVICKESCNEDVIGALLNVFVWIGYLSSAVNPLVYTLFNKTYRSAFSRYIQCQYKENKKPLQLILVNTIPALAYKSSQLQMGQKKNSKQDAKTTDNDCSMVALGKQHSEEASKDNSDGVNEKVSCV

SMILES	Ki [1]	Ki [2]	Ki [3]	Ki [4]	Ki [5]	Ki [6]	Ki [7]	Ki [8]	inhibition [9]	inhibition [10]	inhibition [11]	inhibition [12]	inhibition [13]	inhibition [14]
Cc1ccc(N2CCN(CCCCc3ccc(F)cc3)CC2)nc1	60 nM	1610 nM	2990 nM	92 nM	–	–	–	–	–	–	–	–	–	–
O=C1c2ccc(F)cc2CC1CCN1CCCN(c2ccc(Cl)cc2)CC1 (stereo not drawn)	72 nM	–	24 nM	–	–	–	–	–	–	–	–	–	–	–
O=C(CCCN1C2CCC1CN(c1ccc(Cl)cn1)C2)c1ccc(F)cc1	335 nM	1360 nM	241 nM	78 nM	1250 nM	51 nM	119 nM	1010 nM	–	–	–	–	–	–
Fc1ccc(CCCCN2CCN(c3cccnc3)CC2)cc1	267 nM	–	–	18 nM	–	338 nM	16 nM	–	50%	50%	–	–	–	–
Fc1ccc2c(c1)CC(CCN1CCCN(c3ccccn3)CC1)C2 (stereo not drawn)	267 nM	963 nM	64 nM	615 nM and 589 nM	599 nM	43 nM	104 nM	774 nM	–	–	–	–	–	–
Fc1ccc(CCCCN2C3CCC2CN(c2ccc(Cl)cn2)C3)cc1	339 nM	–	158 nM	94.2 nM	–	94 nM	44 nM	840 nM	50%	50%	–	–	–	–
Fc1ccc(CCCCN2CCN(c3cccc(-c4ccccc4)n3)CC2)cc1	160 nM	2960 nM	> 10000 nM	155 nM	641 nM	261 nM	84 nM	58 nM	–	–	–	–	–	–
O=C1c2ccc(F)cc2CC1CCN1CCCN(c2ccccn2)CC1 (stereo not drawn)	58 nM	–	949 nM and 933 nM	886 nM	649 nM	59 nM	191 nM	2290 nM	50%	–	–	–	–	–
O=C(CCCN1CCN(c2cccnc2)CC1)c1ccc(F)cc1	147 nM and 135 nM	–	–	97 nM	1170 nM	305 nM	30 nM	140 nM	50%	–	–	–	–	–
O=C(CCCN1CCCN(c2ccc(Cl)cn2)CC1)c1ccc(F)cc1	214 nM	392 nM	37 nM	259 nM	41 nM	8.9 nM	37 nM	26 nM	–	–	–	–	–	–
O=C(CCCN1CCCN(c2ccccn2)CC1)c1ccc(F)cc1	569 nM and 1550 nM	337 nM	–	1960 nM and 1910 nM	181 nM	1.2 nM	257 nM	3450 nM	–	–	–	–	–	–
Fc1ccc(CCCCN2CCN(c3ccc(-c4ccccc4)cn3)CC2)cc1	> 10000 nM	> 10000 nM	2670 nM	1460 nM	> 10000 nM	147 nM	2260 nM	2090 nM	–	–	–	–	–	–
Fc1ccc(CCCCN2CCN(c3ccncc3)CC2)cc1	–	–	–	–	–	–	2050 nM	–	50%	50%	50%	50%	50%	50%
Fc1ccc(CCCCN2CCN(c3ccccn3)CC2)cc1	–	–	–	–	–	–	–	–	50%	–	–	–	–	–
O=C1c2ccc(F)cc2CC1CCN1CCCN(c2ccc(Cl)cn2)CC1 (stereo not drawn)	58 nM	355 nM	24 nM	209 nM	364 nM	13 nM	36 nM	125 nM	–	–	–	–	–	–
